Data: ChEMBL document CHEMBL1149537, “Design and synthesis of 1,2-dithiolane derivatives and evaluation of their neuroprotective activity” (Bioorg Med Chem Lett, 2007)

The compounds below were run on HT-22 (assay: Neuroprotective activity against glutamate-induced damage in mouse HT22 cells after 24 hrs). Details: HT-22, 24 h.
Format: functional, cell-based
COc1ccc(CCc2nnc(CCCCC3CCSS3)o2)cc1OC (stereo not given) was tested, and the EC50 was > 10 µM.
With O=C(CCCCC1CCSS1)NCCc1ccc(O)c(O)c1 (stereo not given) the EC50 was > 10 µM.
For COc1ccc(-c2noc(CCCCC3CCSS3)n2)cc1OC (stereo not given), the EC50 was > 10 µM.
In the case of COc1ccc(CCNC(=O)CCCCC2CCSS2)cc1OC (stereo not given), the EC50 is reported as > 10 µM.
Oc1ccc(-c2noc(CCCCC3CCSS3)n2)cc1O (stereo not given) was tested, and the EC50 was 3.63 µM.
COc1ccc(-c2nnc(CCCCC3CCSS3)o2)cc1OC (stereo not given) was tested, and the EC50 was > 10 µM.
For COc1ccc(-c2noc(CCCCC(S)CCS)n2)cc1OC (stereo not given), the EC50 was > 10 µM.
For COc1ccc(CCn2nnnc2CCCCC2CCSS2)cc1OC (stereo not given), the EC50 was > 10 µM.
Oc1ccc(CCc2nnc(CCCCC3CCSS3)o2)cc1O (stereo not given) gave an EC50 of 4.21 µM.
COc1ccc(-c2cn(CCCCCC3CCSS3)nn2)cc1OC (stereo not given) was tested, and the EC50 was > 10 µM.
For O=C(CCCCC(S)CCS)NCCc1ccc(O)c(O)c1 (stereo not given), the EC50 was > 10 µM.
In the case of Oc1ccc(-c2cn(CCCCCC3CCSS3)nn2)cc1O (stereo not given), the EC50 is reported as 6.23 µM.
With Oc1ccc(CCn2nnnc2CCCCC2CCSS2)cc1O (stereo not given) the EC50 was 2.99 µM.
COc1ccc(CCn2nnnc2CCCCC(S)CCS)cc1OC (stereo not given) was tested, and the EC50 was > 10 µM.
With COc1ccc(-c2csc(CCCCC3CCSS3)n2)cc1OC (stereo not given) the EC50 was > 10 µM.
